Measurements reported in PMC9513391, “Crystal structure of the α-ketoglutarate-dependent non-heme iron oxygenase CmnC in capreomycin biosynthesis and its engineering to catalyze hydroxylation of the substrate enantiomer” (Frontiers in Chemistry, 2022).

What was measured:
Format in all cases: binding
[1] = biological target: T1, CmnC (Saccharothrix mutabilis, UniProt A6YEH4, L136Q/S138G/D249Y); experiment: X-ray crystal structure by soaking, […] Å; hydroxylation by LC-MS; settings: 20 mM D-Arg soak, 12 h; activity: α-KG, Fe(II), ascorbate, pH 7.0, 26 °C
T1 construct: cmnC amplified from genomic DNA in pET28a, E. coli BL21 (DE3), Ni-NTA purified; homodimer in crystal and by size-exclusion chromatography
T1 sequence (A6YEH4 1-338 L136Q/S138G/D249Y): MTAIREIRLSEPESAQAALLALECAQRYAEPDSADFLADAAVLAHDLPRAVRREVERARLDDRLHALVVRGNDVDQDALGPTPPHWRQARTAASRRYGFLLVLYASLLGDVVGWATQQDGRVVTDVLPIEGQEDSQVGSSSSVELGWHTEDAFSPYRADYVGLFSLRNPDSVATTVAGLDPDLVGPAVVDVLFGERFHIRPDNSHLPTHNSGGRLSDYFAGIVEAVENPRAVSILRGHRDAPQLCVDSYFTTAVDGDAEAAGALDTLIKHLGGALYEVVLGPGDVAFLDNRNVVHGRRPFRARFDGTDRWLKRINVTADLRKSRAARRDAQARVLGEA

[2] = biological target: T2, CmnC (Saccharothrix mutabilis, UniProt A6YEH4); experiment: X-ray crystal structure by soaking; hydroxylation by LC-MS; settings: 0.1 mM FeCl2 soak
T2 construct: cmnC amplified from genomic DNA in pET28a, E. coli BL21 (DE3), Ni-NTA purified; homodimer in crystal and by size-exclusion chromatography
T2 sequence (A6YEH4 1-338): as the sequence (A6YEH4 1-338 L136Q/S138G/D249Y) above, with Q136L, G138S, Y249D counted along it

[3] = biological target: T2, CmnC; experiment: X-ray crystal structure by soaking; settings: 3 mM α-KG, 0.1 mM FeCl2 soak, 12 h; ternary complex with L-Arg also solved
[4] = biological target: T1, CmnC; experiment: X-ray crystal structure by soaking, […] Å; settings: 3 mM α-KG and 0.1 mM FeCl2 soak, 12 h

N=C(N)NCCC[C@@H](N)C(=O)O [D-Arg]
X-ray crystal structure by soaking, 1.75 Å; hydroxylation by LC-MS [1]: crystal structures of CmnC^L136Q,S138G,D249Y in complex with α-KG (CmnC^triple,α-kg) and D-Arg (CmnC^triple,D−Arg)

N=C(N)NCCC[C@H](N)C(=O)O [L-Arg]
X-ray crystal structure by soaking; hydroxylation by LC-MS ([2]; 3 mM L-Arg, tartrate in α-KG site in the binary complex, ternary complex with α-KG also solved): in complex with L-Arg (CmnC^ L−Arg), L-hArg (CmnC^ L-hArg), α-KG (CmnC^α-kg)

N=C(N)NCCCC[C@H](N)C(=O)O [L-hArg]
X-ray crystal structure by soaking; hydroxylation by LC-MS ([2]; 3 mM L-hArg, tartrate in α-KG site): in complex with L-Arg (CmnC^ L−Arg), L-hArg (CmnC^ L-hArg), α-KG (CmnC^α-kg)

O=C(O)CCC(=O)C(=O)O [α-KG]
X-ray crystal structure by soaking [3]: L-hArg (CmnC^ L-hArg), α-KG (CmnC^α-kg), and L-Arg/α-KG (CmnC^ L−Arg,α-kg)
X-ray crystal structure by soaking, 1.67 Å [4]: crystal structures of CmnC^L136Q,S138G,D249Y in complex with α-KG (CmnC^triple,α-kg)
